The source made the active and inactive calls.
Key:
Vero [1] = assay: West Nile virus antiviral activity, cell-based, CPE readout (AID 1621); format: functional; details: Chlorocebus sabaeus
Vero [2] = assay: West Nile virus cytopathic effect inhibition, cell-based (AID 2419); format: functional; details: Chlorocebus sabaeus
[3] = A Cell Based Assay for the Identification of Probe candidate Compounds with Anti- Venezuelan Equine Encephalitis virus. [Related pubchem assays: 2409, 2419, 1621, 2238, 2405, 2024, 2065, 2402, 2414, 1635, 1650, 2244 ]; format: functional
Vero [4] = assay: Vero E6 cell cytotoxicity, SAR follow-up, cytotoxicity control for West Nile virus antiviral project, synthesized analogs (AID 2244); format: functional; details: Chlorocebus sabaeus
Vero [5] = assay: cytotoxicity of synthesized analogs in Vero cells, SAR follow-up, cytotoxicity control for West Nile virus antiviral project, cell-based, set II (AID 2402); format: functional; details: Chlorocebus sabaeus
Vero [6] = assay: West Nile virus CPE inhibition, SAR follow-up, cell-based, synthesized analogs (AID 2238); format: functional; details: Chlorocebus sabaeus
Vero [7] = assay: cytotoxicity of synthesized analogs in Vero 76, SAR follow-up, cytotoxicity control for West Nile virus antiviral project, Vero 76 cells (AID 2414); format: functional; details: Chlorocebus sabaeus
[8] = molecular target: T1, Ubiquitin-conjugating enzyme E2 N (Homo sapiens, UniProt P61088); format: functional;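 also: Dose-response confirmation in a TR-FRET assay detecting UBC13-driven polyubiquitin chain formation, inhibition measured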
T1 sequence (P61088 whole entry): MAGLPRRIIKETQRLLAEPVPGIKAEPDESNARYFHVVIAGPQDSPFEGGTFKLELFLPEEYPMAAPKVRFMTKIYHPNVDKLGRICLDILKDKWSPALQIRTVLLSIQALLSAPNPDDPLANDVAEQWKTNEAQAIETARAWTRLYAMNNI

Protein RecA = molecular target: T2, Protein RecA (Mycobacterium tuberculosis, UniProt P9WHJ3); assay: Fluorescence Cell-Free Homogeneous Dose Retest to Identify Inhibitors of RecA-Intein Splicing Activity. [Related pubchem assays (depositor defined):AID2097, AID2223, AID489010, AID492950]; format: functional
T2 sequence (P9WHJ3 whole entry): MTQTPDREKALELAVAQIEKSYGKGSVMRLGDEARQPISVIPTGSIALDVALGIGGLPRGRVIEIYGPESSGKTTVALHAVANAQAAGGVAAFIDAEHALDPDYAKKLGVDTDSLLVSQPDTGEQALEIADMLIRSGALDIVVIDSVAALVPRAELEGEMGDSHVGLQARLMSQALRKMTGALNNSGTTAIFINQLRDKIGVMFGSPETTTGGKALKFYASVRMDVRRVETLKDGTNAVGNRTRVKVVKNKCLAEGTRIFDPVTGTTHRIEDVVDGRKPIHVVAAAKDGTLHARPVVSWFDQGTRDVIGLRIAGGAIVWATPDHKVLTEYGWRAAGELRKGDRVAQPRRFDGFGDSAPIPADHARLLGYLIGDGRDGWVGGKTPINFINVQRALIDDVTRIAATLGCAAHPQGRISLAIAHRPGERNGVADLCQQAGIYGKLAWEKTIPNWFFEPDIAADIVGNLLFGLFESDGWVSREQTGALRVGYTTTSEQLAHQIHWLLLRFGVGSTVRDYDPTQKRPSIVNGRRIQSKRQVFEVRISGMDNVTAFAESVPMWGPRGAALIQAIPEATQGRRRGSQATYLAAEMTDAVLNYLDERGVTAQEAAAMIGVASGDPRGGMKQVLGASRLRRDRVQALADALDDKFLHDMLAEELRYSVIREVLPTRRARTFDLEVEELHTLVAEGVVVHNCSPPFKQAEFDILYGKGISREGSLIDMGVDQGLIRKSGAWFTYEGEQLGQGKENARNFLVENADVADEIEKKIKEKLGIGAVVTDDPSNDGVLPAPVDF

Nonstructural protein 1 = Nonstructural protein 1 (Influenza A virus, UniProt Q194T2); format: functional, Influenza A virus (A/California/07/2009(H1N1))
Nonstructural protein 1, sequence (Q194T2 whole entry): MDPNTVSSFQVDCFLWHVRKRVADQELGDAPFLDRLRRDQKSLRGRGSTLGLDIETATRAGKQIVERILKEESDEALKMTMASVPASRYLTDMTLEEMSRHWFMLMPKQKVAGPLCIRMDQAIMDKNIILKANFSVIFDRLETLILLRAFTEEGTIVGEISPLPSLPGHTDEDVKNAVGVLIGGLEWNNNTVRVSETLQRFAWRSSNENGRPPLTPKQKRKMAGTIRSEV

[9] = molecular target: T3, Apoptotic protease-activating factor 1 (Homo sapiens, UniProt O14727); format: functional
T3 sequence (O14727 whole entry): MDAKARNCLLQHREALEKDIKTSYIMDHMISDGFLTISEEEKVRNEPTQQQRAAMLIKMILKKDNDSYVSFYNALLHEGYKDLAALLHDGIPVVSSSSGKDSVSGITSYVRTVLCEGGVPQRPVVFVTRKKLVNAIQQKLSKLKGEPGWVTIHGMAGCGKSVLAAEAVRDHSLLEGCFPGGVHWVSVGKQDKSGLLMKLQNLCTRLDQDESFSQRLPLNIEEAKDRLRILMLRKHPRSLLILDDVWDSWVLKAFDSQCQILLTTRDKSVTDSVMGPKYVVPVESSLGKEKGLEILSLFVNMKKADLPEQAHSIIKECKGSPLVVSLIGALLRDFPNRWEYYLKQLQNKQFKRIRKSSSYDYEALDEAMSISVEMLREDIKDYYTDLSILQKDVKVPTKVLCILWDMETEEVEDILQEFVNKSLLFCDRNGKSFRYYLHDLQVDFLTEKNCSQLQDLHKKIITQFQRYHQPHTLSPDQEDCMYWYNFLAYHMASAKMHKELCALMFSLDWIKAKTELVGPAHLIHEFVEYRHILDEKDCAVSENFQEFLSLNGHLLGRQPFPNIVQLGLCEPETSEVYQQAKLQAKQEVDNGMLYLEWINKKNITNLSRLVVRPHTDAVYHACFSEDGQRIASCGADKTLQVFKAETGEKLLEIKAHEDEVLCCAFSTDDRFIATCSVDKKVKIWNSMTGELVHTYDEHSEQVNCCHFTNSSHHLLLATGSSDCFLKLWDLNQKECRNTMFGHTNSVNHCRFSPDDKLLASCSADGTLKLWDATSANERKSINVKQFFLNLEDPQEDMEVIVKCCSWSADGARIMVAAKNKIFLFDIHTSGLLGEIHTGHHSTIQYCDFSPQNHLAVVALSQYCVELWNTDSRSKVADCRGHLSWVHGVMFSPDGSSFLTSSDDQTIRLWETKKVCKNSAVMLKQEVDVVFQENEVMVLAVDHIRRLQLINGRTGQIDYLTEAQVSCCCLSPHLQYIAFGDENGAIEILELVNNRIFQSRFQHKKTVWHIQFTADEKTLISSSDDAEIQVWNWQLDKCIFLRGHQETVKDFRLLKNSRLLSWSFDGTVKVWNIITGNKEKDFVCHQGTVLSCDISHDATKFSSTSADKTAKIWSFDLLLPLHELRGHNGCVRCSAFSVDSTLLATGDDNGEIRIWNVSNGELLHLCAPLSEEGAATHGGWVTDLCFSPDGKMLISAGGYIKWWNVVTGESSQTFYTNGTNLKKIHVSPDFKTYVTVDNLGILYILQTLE

[10] = molecular target: T4, Replicative DNA helicase DnaB (Mycobacterium tuberculosis, UniProt P9WMR3); assay: DnaB intein splicing inhibitors, dose response, biochemical, cell-free fluorescence (AID 449749); format: functional
T4 sequence (P9WMR3 whole entry): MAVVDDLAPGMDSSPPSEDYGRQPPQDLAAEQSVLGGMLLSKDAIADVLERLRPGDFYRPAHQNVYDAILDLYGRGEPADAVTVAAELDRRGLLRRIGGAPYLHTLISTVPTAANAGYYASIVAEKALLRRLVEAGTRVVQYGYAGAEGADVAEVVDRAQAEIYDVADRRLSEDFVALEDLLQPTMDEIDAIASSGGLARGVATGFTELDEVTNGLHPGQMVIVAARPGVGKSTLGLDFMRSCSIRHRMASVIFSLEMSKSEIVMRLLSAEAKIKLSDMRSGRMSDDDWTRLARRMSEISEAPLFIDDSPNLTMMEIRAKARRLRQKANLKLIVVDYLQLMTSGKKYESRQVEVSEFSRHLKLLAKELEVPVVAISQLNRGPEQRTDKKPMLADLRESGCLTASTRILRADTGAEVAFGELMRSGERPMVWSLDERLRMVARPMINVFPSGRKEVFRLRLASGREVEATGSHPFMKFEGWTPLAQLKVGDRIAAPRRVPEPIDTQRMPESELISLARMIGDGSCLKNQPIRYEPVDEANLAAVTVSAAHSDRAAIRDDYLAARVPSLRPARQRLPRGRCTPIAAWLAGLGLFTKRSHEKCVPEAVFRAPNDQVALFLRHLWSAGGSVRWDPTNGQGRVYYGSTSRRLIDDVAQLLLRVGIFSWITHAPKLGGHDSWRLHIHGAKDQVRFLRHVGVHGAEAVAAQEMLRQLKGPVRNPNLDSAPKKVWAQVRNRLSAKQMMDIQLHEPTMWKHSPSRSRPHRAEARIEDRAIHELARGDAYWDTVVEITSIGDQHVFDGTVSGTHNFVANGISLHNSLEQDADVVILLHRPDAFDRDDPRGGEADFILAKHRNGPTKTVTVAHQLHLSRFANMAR

cells = format: functional
[11] = Vero E6 cell cytotoxicity, dose response, cytotoxicity control for non-replicating M. tuberculosis project, secondary assay (AID 492998); format: functional, VeroE6; details: Vero C1008
[12] = HepG2 cell cytotoxicity, dose response, cytotoxicity control for non-replicating M. tuberculosis project (AID 489018); format: functional; details: Mycobacterium tuberculosis
[13] = THP-1 cell cytotoxicity, dose response, cytotoxicity control for non-replicating M. tuberculosis project (AID 489025); format: functional
SUMO-activating enzyme [14] = molecular target: T5, SUMO-activating enzyme (Homo sapiens, UniProt Q9UBT2); assay: SUMOylation inhibitor hit validation, confirmation, SUMOylation inhibitor project, biochemical, AlphaScreen (AID 2018); format: functional
T5 sequence (Q9UBE0 whole entry): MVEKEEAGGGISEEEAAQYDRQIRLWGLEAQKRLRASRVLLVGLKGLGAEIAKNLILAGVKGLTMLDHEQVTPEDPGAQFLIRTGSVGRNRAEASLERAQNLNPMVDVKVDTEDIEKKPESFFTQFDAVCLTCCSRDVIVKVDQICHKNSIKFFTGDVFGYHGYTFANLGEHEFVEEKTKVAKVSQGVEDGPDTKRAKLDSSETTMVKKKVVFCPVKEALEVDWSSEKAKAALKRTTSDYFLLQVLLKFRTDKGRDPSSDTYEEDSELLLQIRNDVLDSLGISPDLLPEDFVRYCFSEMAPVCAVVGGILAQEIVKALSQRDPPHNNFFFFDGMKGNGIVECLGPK
T5 sequence (Q9UBT2 whole entry): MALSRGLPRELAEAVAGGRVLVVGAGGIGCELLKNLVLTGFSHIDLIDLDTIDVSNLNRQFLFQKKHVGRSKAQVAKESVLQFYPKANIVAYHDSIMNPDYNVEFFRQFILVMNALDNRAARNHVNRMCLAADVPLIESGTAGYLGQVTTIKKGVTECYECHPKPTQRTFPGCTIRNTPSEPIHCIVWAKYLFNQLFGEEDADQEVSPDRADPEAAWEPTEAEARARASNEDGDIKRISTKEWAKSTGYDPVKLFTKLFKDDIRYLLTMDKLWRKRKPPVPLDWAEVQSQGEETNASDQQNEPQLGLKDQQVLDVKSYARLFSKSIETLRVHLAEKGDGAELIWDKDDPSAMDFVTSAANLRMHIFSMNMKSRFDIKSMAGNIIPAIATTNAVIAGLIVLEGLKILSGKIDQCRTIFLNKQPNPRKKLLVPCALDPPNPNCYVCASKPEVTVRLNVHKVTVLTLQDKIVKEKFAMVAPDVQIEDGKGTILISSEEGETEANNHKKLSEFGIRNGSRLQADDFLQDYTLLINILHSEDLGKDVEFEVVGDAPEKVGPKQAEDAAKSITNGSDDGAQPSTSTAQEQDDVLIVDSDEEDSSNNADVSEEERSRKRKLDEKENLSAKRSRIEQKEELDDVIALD

SUMO-activating enzyme [15] = molecular target: T5, SUMO-activating enzyme; assay: inhibitors of in vitro SUMOylation cascade, primary screen, biochemical, HTRF, uHTS (AID 2006); format: protein-complex assay
[16] = test system: Streptococcus sp. 'group A'; assay: growth inhibition of control SK(-) GAS strain, dose response, counter-screen for streptokinase expression inhibitor project, luminescence, kanamycin, BacTiterGlo, confirmation (AID 1900); format: functional, organism-based
Streptococcus = assay: Group A Streptococcus viability loss, dose response, counter-screen for streptokinase expression inhibitor project, luminescence, BacTiterGlo (AID 1915); format: functional, organism-based;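 also: potency for reduction of bacterial viability or growth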
[17] = molecular target: Voltage-dependent T-type calcium channel subunit alpha-1H (Homo sapiens, UniProt O95180); assay: Cav3.2 T-type channel inhibitors, cell-based, synthetic library set 1, calcium flux (AID 493022); format: functional
Voltage-dependent T-type calcium channel subunit alpha-1H, sequence (O95180 whole entry): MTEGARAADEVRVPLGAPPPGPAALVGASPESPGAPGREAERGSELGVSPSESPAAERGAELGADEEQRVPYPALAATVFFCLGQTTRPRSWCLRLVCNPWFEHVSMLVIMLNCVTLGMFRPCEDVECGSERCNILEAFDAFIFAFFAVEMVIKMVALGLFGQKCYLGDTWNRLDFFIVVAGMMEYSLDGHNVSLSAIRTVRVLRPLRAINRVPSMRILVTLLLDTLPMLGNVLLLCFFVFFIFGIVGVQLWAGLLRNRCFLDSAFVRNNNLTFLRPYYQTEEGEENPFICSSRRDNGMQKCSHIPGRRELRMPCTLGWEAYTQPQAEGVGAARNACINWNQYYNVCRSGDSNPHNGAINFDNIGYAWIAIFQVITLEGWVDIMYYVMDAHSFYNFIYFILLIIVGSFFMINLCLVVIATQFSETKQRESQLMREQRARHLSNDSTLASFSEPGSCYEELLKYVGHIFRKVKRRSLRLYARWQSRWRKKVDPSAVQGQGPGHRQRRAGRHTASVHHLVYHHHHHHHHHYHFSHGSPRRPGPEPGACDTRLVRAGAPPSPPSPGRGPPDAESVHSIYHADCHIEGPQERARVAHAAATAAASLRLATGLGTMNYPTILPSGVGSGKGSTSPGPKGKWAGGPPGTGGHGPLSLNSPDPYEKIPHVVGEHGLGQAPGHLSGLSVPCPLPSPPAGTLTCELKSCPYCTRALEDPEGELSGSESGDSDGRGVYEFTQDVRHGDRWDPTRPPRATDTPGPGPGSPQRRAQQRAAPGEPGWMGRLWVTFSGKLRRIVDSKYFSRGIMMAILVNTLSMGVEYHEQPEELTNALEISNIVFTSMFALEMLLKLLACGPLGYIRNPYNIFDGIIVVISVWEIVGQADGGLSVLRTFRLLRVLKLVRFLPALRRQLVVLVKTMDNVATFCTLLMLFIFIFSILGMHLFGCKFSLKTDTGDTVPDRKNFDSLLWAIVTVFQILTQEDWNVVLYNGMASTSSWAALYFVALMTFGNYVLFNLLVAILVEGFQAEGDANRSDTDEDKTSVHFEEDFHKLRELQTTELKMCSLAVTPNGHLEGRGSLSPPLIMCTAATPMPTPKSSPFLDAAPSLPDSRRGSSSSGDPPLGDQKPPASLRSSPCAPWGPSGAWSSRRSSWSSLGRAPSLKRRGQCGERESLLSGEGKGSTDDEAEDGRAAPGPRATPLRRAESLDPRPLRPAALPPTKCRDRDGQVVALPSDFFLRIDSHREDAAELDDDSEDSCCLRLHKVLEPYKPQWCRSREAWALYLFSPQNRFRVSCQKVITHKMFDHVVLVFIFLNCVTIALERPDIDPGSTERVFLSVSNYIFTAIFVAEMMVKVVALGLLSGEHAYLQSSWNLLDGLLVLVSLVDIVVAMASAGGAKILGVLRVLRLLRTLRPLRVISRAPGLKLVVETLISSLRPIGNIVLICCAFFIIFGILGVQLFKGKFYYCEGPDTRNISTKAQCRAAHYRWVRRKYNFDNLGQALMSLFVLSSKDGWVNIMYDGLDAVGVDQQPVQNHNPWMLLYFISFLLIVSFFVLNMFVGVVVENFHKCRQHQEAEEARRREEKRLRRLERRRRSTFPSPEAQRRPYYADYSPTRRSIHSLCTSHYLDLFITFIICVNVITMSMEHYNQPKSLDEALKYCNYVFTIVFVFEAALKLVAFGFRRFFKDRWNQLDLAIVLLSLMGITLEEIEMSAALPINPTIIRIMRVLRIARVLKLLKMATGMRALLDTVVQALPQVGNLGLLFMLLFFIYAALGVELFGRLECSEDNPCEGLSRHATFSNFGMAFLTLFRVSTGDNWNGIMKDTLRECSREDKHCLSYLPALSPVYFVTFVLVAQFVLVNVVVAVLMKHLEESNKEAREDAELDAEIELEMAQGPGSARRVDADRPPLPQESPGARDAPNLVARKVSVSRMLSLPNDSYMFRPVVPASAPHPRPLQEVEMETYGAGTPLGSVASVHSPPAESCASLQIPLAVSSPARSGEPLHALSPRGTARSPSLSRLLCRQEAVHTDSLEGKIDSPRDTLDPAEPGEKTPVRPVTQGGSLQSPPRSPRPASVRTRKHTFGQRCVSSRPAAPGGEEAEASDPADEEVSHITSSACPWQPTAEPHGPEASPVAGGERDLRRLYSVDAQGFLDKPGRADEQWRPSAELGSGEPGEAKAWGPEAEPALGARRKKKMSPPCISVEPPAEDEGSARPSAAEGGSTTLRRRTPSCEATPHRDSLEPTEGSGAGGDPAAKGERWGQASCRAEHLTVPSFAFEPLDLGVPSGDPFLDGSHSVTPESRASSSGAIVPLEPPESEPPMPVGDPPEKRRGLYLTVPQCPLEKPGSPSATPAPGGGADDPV

[18] = molecular target: T6, Kappa-type opioid receptor (Homo sapiens, UniProt P41145); assay: SAR analysis of Antagonists of the Kappa Opioid Receptor (KOR) using an Image-Based Assay - Set 4. [Related pubchem assays (depositor defined):AID1777, AID1785]; format: functional
T6 sequence (P41145 whole entry): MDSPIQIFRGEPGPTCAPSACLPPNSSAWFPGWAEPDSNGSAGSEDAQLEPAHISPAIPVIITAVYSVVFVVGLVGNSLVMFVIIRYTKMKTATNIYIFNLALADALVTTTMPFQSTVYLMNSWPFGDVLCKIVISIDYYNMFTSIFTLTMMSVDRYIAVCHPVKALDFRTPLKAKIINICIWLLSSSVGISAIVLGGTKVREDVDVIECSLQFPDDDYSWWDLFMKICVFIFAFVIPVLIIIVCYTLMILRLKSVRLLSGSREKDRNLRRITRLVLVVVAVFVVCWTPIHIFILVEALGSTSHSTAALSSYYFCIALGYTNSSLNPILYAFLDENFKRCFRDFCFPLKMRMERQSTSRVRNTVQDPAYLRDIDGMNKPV

[19] = molecular target: Delta-type opioid receptor (Homo sapiens, UniProt P41143); assay: SAR Analysis of Antagonists of the DOR Receptor using an Image-Based Assay - Set 3. [Related pubchem assays (depositor defined):AID1777, AID1785]; format: functional;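 also: U2OS cells expressing DOR1 and beta-arrestin GFP stimulated with 100 nM SNC80; imaging of GFP-tagged beta-arrestin moving into spots after receptor activation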
Delta-type opioid receptor, sequence (P41143 whole entry): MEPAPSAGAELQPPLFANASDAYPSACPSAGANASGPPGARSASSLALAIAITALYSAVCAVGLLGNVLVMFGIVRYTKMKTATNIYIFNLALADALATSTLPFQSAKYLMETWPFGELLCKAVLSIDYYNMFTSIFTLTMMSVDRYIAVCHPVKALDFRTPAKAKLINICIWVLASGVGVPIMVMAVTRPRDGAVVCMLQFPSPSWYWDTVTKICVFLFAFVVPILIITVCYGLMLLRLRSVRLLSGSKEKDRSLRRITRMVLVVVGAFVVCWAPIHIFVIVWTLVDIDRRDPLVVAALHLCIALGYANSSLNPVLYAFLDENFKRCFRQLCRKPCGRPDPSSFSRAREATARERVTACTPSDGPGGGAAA

[20] = molecular target: T6, Kappa-type opioid receptor; assay: SAR analysis of small molecule antagonists of the kappa opioid receptor via a luminescent beta-arrestin assay - Set 6. [Related pubchem assays (depositor defined):AID1777, AID1778, AID1785, AID1786, AID1966, AID2133, AID2136, AID2285]; format: functional
Mu-type opioid receptor = Mu-type opioid receptor (Homo sapiens, UniProt P35372); assay: SAR Analysis of Antagonists of the MOR Receptor using an Image-Based Assay - Set 3. [Related pubchem assays (depositor defined):AID1777, AID1785, AID1786, AID1966, AID2133, AID2136, AID2284, AID2285, AID2420]; format: functional
Mu-type opioid receptor, sequence (P35372 whole entry): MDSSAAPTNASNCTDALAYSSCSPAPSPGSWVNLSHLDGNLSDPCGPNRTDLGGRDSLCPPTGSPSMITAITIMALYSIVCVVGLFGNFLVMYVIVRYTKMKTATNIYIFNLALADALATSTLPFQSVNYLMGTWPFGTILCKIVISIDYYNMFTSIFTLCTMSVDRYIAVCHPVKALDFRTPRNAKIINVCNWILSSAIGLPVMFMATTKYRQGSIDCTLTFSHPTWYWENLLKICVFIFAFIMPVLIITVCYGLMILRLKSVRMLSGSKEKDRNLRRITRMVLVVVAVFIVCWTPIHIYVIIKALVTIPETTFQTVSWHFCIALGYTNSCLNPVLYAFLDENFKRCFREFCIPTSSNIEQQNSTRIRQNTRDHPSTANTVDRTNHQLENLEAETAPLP

[21] = molecular target: T6, Kappa-type opioid receptor; assay: SAR analysis of small molecule antagonists of the kappa opioid receptor via a luminescent beta-arrestin assay - Set 4. [Related pubchem assays (depositor defined):AID1777, AID1778, AID1785, AID1786, AID1966, AID2133, AID2136, AID2285]; format: functional

Which IC50 (Vero [1]) does the source give for CCOC(=O)C1(Cc2ccccc2C(F)(F)F)CCN(C2CCN(C(C)C)CC2)CC1 here?
The IC50 was 18.6 µM (active).

And the IC50 (Vero [2])?
The IC50 was > 50 µM (active).

What about the IC50 [3] of the same compound?
The IC50 was 6.36 µM (active).

And the CC50 (Vero [4])?
The CC50 was 21.6 µM (active).

And the CC50 (Vero [5])?
The CC50 was 31.5 µM (active).

What about the IC50 (Vero [6]) of the same compound?
Its IC50 is 36.5 µM (active).

What about the CC50 (Vero [7]) of the same compound?
The CC50 was > 133 µM (active).

What does the source list for CCOC(=O)C1=C(c2ccccc2)N=C(N)NC1c1ccc(OCc2ccc(C(=O)OC)cc2)cc1 (stereo unspecified)?
IC50 [8]: > 20 µM (inactive); EC50 (Protein RecA): 11.8 µM (active); IC50 (Nonstructural protein 1): 62.3 µM (active); IC50 [9]: 26.8 µM (active); AC50 [10]: 15.6 µM (active); IC50 (cells): 9.88 µM (active); CC50 [11]: 18.2 µM (active); CC50 [12]: > 20 µM (active); CC50 [13]: 11.8 µM (active)

For O=C(COc1ccc(Cl)cc1)Nc1nnc(-c2ccc3c(c2)CCCC3)o1, which IC50 (SUMO-activating enzyme [14]) is on record?
The IC50 was > 100 µM (inactive).

And the IC50 (SUMO-activating enzyme [15])?
The IC50 was 48.2 µM (active).

What about the EC50 [16] of the same compound?
The EC50 was 489 nM (active).

What about the EC50 (Streptococcus) of the same compound?
Its EC50 is 1.83 µM (active).

And the EC50 [17]?
Its EC50 is 2.8 µM (active).

Which results are given for Cc1ccc(S(=O)(=O)NCc2ccc(C(=O)NCCN3CCN(c4ccccc4)CC3)cc2)cc1?
IC50 [18]: > 32 µM (inactive); IC50 [19]: > 32 µM (inactive); IC50 [20]: > 20 µM (inactive); IC50 (Mu-type opioid receptor): > 32 µM (inactive); IC50 [21]: > 20 µM (inactive)

From ChEMBL document CHEMBL1201862, “PubChem BioAssay data set” (2004)
